Results on 27 compounds are retold here after US11098058B2, “Bicyclic ketone compounds and methods of use thereof” (Genentech, Inc., priority 2017, dated 2021).

The structures appear in SMILES notation.

Sequence of human RIP1 kinase domain (2-375) (Q13546 2-375): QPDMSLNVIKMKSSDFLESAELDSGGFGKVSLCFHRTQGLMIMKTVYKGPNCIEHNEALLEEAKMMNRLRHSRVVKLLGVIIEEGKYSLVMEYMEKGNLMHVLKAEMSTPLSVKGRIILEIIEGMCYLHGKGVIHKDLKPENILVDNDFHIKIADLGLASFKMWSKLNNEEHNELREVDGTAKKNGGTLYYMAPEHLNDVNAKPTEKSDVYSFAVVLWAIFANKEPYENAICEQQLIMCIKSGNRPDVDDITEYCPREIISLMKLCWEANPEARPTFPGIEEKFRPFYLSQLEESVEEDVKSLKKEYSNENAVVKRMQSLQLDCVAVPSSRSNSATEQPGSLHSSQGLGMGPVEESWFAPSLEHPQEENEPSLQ

One assay addresses human RIP1 kinase domain (2-375) (Homo sapiens (Human), UniProt Q13546). The following applies: RIP1 kinase inhibition, tight-binding apparent Ki; 50 nM enzyme, 50 μM ATP, 2 hours incubation.
Method: RIP1 Kinase Inhibition Assays (Biochemical Assay)
The ability of the receptor interacting protein kinase (RIPK1) to catalyze the hydrolysis of adenosine-5′-triphosphate (ATP) is monitored using the Transcreener ADP (adenosine-5′-diphosphate) assay (BellBrook Labs). Purified human RIP1 kinase domain (2-375) (50 nM) derived from a baculovirus-infected insect cell expression system is incubated with test compounds for 2 hours in 50 mM Hepes buffer (pH 7.5) containing 30 mM MgCl2, 1 mM dithiothreitol, 50 μM ATP, 0.002% Brij-35, and 0.5% dimethyl sulfoxide (DMSO). […] The tracer bound to the antibody is displaced by the ADP generated during the RIP1K reaction, which causes a decrease in fluorescence polarization that is measured by laser excitation at 633 nm with a FP microplate reader M1000. Fractional activity was plotted against test article concentration. Using Genedata Screener software (Genedata; Basel, Switzerland), the data were fit to the tight-binding apparent inhibition constant (Ki^app) Morrison equation [Williams, J. W. and Morrison, J. F. (1979) The kinetics of reversible tight-binding inhibition. […] The following equation was used to calculate fractional activity and Ki^app:
[formula] where [E]T and [I]T are the total concentrations of active enzyme and test article, respectively.
Turning to `O=C(c1nc2n(n1)[C@@H](c1ccccc1)C[C@H]2Cl)C1CC1` (single isomer, unassigned) [Example 115], the Ki is 0.79 µM.

Regarding `O=C(c1nc2n(n1)[C@H](c1ccccc1)C[C@@H]2Cl)C1CC1` (single isomer, unassigned) [Example 116], the Ki was determined as 0.004 µM.

As to `O=C(c1nc2n(n1)[C@H](c1ccccc1)C[C@H]2Cl)C1CC1` (single isomer, unassigned) [Example 117], the Ki stood at 0.56 µM.

For `N#Cc1ccccc1[C@@H]1C[C@H](F)c2nc(C(=O)C3CC3)nn21` (single isomer, unassigned) [Example 124], the Ki came to 0.061 µM.

For `O=C(c1nc2n(n1)[C@H](c1ccccc1)C[C@@H]2F)[C@@H]1C[C@H]2CC[C@@H]1O2` (single isomer, unassigned) [Example 140], the Ki amounted to 0.15 µM.

As for `O=C(c1nc2n(n1)[C@H](c1ccccc1)C[C@@H]2F)[C@H]1C[C@@H]2CC[C@H]1O2` (single isomer, unassigned) [Example 141], the Ki came out at 0.009 µM.

With `O=C(c1nc2n(n1)[C@H](c1ccccc1)CCC2)C1CC1` (single isomer, unassigned) [Example 146], the Ki came to 0.07 µM.

For `O=C(c1nc2n(n1)[C@H](c1ncccc1F)C[C@@H]2F)C1CC1` (single isomer, unassigned) [Example 150], the Ki amounted to 0.01 µM.

On to `O=C(c1nc2n(n1)[C@H](c1ncccc1F)C[C@H]2F)C1CC1` (single isomer, unassigned) [Example 151], for which the Ki was determined as 0.23 µM.

With `Cn1cc([C@@H]2C[C@H](F)c3nc(C(=O)C4CC4)nn32)cn1` (single isomer, unassigned) [Example 152], the Ki is 0.03 µM.

Turning to `COc1cccc([C@@H]2C[C@H](F)c3nc(C(=O)C4CC4)nn32)c1` (single isomer, unassigned) [Example 156], the Ki came out at 0.02 µM.

Consider `O=C(c1cc2n(n1)[C@H](c1ccccc1)C[C@@H]2F)C1CC1` (single isomer, unassigned) [Example 159], for which the Ki worked out at 0.005 µM.

Take `O=C(c1nc2n(n1)[C@H](c1ccccc1)C[C@@H]2F)C1CC2(C1)CC2(F)F` (stereo partly drawn) [Example 70, (2,2-difluorospiro[2.3]hexan-5-yl)-[(5S,7S)-7-fluoro-5-phenyl-6,7-dihydro-5H-pyrrolo[1,2-b][1,2,4]triazol-2-yl]methanone]: the Ki worked out at 0.017 µM.

For the compound `O=C(c1nc2n(n1)[C@H](c1ccccc1)C[C@@H]2F)C1CC1c1ccccn1` (stereo partly drawn) [Example 74, [2-(2-pyridyl)cyclopropyl]-[(5S,7S)-7-fluoro-5-phenyl-6,7-dihydro-5H-pyrrolo[1,2-b][1,2,4]triazol-2-yl]methanone], the Ki was determined as 0.018 µM.

Turning to `O=C(c1nc2n(n1)[C@H](c1ccccc1)C[C@@H]2F)C1(CF)CC1` [Example 79, [1-(fluoromethyl)cyclopropyl]-[(5S,7S)-7-fluoro-5-phenyl-6,7-dihydro-5H-pyrrolo[1,2-b][1,2,4]triazol-2-yl]methanone], the Ki stood at 0.0034 µM.

On to `O=C(c1nc2n(n1)[C@H](c1ccccc1)C[C@@H]2F)C1CC1C(F)(F)F` (stereo partly drawn) [Example 81, [(5S,7S)-7-fluoro-5-phenyl-6,7-dihydro-5H-pyrrolo[1,2-b][1,2,4]triazol-2-yl]-[2-(trifluoromethyl)cyclopropyl]methanone], for which the Ki was determined as 0.028 µM.

In the case of `O=C(c1nc2n(n1)[C@H](c1ccccc1Cl)C[C@@H]2F)C1CC1` [Example 100, cyclopropyl-[(5S,7S)-5-(2-chlorophenyl)-7-fluoro-6,7-dihydro-5H-pyrrolo[1,2-b][1,2,4]triazol-2-yl]methanone], the Ki was determined as 0.0035 µM.

Turning to `O=C(c1nc2n(n1)[C@H](c1cc(F)ccc1F)C[C@@H]2F)C1CC1` [Example 101, cyclopropyl-[(5S,7S)-5-(2,5-difluorophenyl)-7-fluoro-6,7-dihydro-5H-pyrrolo[1,2-b][1,2,4]triazol-2-yl]methanone], the Ki was 0.0036 µM.

As for `O=C(c1nc2n(n1)C(c1ccccc1)CCC2)C1CC1` (stereo not drawn) [Example 145, cyclopropyl-(5-phenyl-5,6,7,8-tetrahydro-[1,2,4]triazolo[1,5-a]pyridin-2-yl)methanone], the Ki was 0.26 µM.

In the case of `Cc1oncc1C1CC(F)c2nc(C(=O)C3CC3)nn21` (stereo not drawn) [Example 153, cyclopropyl(7-fluoro-5-(5-methylisoxazol-4-yl)-6,7-dihydro-5H-pyrrolo[1,2-b][1,2,4]triazol-2-yl)methanone], the Ki was 0.38 µM.

Regarding `Cn1cc(Cl)c([C@@H]2C[C@H](F)c3nc(C(=O)C4CC4)nn32)n1` [Example 154, ((5S,7S)-5-(4-chloro-1-methyl-1H-pyrazol-3-yl)-7-fluoro-6,7-dihydro-5H-pyrrolo[1,2-b][1,2,4]triazol-2-yl)(cyclopropyl)methanone], the Ki came out at 0.032 µM.

For the compound `Cn1cc(Cl)c([C@@H]2C[C@@H](F)c3nc(C(=O)C4CC4)nn32)n1` [Example 155, ((5S,7R)-5-(4-chloro-1-methyl-1H-pyrazol-3-yl)-7-fluoro-6,7-dihydro-5H-pyrrolo[1,2-b][1,2,4]triazol-2-yl)(cyclopropyl)methanone], the Ki amounted to 0.97 µM.

`O=C(c1nc2n(n1)C(c1ccccc1)CC2)C1(Cn2cccn2)CC1` (stereo not drawn) [Example 158, (5-phenyl-6,7-dihydro-5H-pyrrolo[1,2-b][1,2,4]triazol-2-yl)-[1-(pyrazol-1-ylmethyl)cyclopropyl]methanone]: the Ki was 0.65 µM.

Staying with this assay, now noted: tight-binding apparent inhibition constant (Ki app, Morrison equation); 50 nM enzyme, 50 μM ATP, 2 hours incubation.
On to `CCC(=O)c1cn2c(n1)C(c1ccccc1)CC2` (stereo not drawn) [Example 17, 1-(7-phenyl-6,7-dihydro-5H-pyrrolo[1,2-a]imidazol-2-yl)propan-1-one], for which the Ki was 0.94 µM.

For `CCC(=O)c1cc2n(n1)C(c1ccccc1)CC2` (stereo not drawn) [Example 19, 1-(6-phenyl-5,6-dihydro-4H-pyrrolo[1,2-b]pyrazol-2-yl)propan-1-one], the Ki was 0.0442 µM.

In the case of `CC(C)(C)C(=O)c1nc2n(n1)C(c1ccccc1)CC2F` (stereo not drawn) [Example 44, 1-(7-fluoro-5-phenyl-6,7-dihydro-5H-pyrrolo[1,2-b][1,2,4]triazol-2-yl)-2,2-dimethyl-propan-1-one], the Ki was determined as 0.0115 µM.

Take `CC(C)C(=O)c1nc2n(n1)C(c1ccccc1)CC2F` (stereo not drawn) [Example 45, 1-(7-fluoro-5-phenyl-6,7-dihydro-5H-pyrrolo[1,2-b][1,2,4]triazol-2-yl)-2-methyl-propan-1-one]: the Ki was 0.0143 µM.
